The text below walks through data of patent US6225478A, “Iridoid derivatives and neovascularization inhibitors containing the same as active ingredient” (Tsumura & Co., priority 1999, dated 2001).

Converted amounts (≈) assume the structure as drawn. Read-outs that look alike come from different tables or passages of the source. Some results are limits rather than exact numbers.

Assay type in all cases: cell-based
Test [1] concerns human umbilical-vein endothelial cells (HUVEC). Briefly: Cell Proliferation Assay (CPA) Test, HUVEC, MTT. Particulars: Homo sapiens, M199 (2+) medium, read-out: CPA (IC50 μg/ml). As to the method: Furthermore, the sample liquids of compounds used in the CPA and CMA tests were prepared in the manner described below. Firstly, after weighing out each compound, a calculated amount of DMSO was added. After dissolving the compound in the DMSO, phosphate buffered physiological saline (PBS (-)) was added to bring the sample concentration to 1 mg/ml in PBS (-). The amount of DMSO used to dissolve the compounds was adjusted in advance to that the concentration of DMSO at that time was 5%. The resulting liquids were diluted 10-fold with 5% DMSO-PBS (-) solution to prepare sample solutions having a concentration of 0.1 mg/ml. In the TFA test, 320 μl of the prepared 1 mg/ml sample solutions were removed followed by addition of 680 μl of PBS (-) to prepare samples having a concentration of […]. Moreover, 100 μl of this solution was removed followed by addition of 900 μl of PBS (-) to dilute 10-fold and prepare samples having a concentration of 1 μg/ml. P [Cell Proliferation Assay (CPA) Test]
100 μl of the 7th subculture obtained from first generation human umbilical-vein endothelial cells (HUVEC) were disseminated in the wells (N=3) of a 96-well plate (Iwaki, Cat. #4860-010) at a cell concentration of 5×10^4 cells/ml. M-199 medium containing +20% FCS, 10 ng/ml of b-FGF and 10 ng/ml of EGF (abbreviated as "M199 (2+)") was used for the medium.
After culturing for 24 hours at 37° C. in the presence of 5% CO2 under the above conditions, 20 μl/well of MTT solution (solution containing 5 mg/ml of PBS (-)) were added to the control well followed by accurately culturing for 4 hours at 37° C. in the presence of 5% CO2. Following completion of culturing, 100 μl/well of a stop solution (0.001 N aqueous HCl solution containing 10% SDS) were added. On the other hand, 10 μl/well of sample solutions at concentrations of 1 mg/ml and 0.1 mg/ml were added to the other wells.
After culturing for 24 hours at 37° C. in the presence of 5% CO2, the medium was replaced and 100 μl/well of M199 (2+) were added. The samples were also replaced in each well at this time.
Moreover, after additionally culturing for 48 hours at 37° C. in the presence of 5% CO2, 20 μl/well of MTT solution were added to the wells containing sample and the control well followed by accurately culturing for 4 hours at 37° C. and adding 100 μl/well of stop solution.

The test system is the same in test [2]. Briefly: Cell Migration Assay (CMA) Test, HUVEC (% relative to control). Particulars: Homo sapiens, HUVEC, 24 hours, 60% or less = remarkable inhibition, read-out: CMA (% relative to control); for activity at 1 µg/mL: 1 μg/ml; for activity at 10 µg/mL: 10 μg/ml. A digest of the protocol: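 Confluent 7th-subculture HUVEC monolayers scraped with razor blade, then given M199 (2+) plus 40 or 4 μl of 1 mg/ml sample (in 5% DMSO-PBS) per 4.0 ml medium for 24 h at 37 °C. Methanol-fixed, Giemsa-stained; newly migrated cells counted microscopically in 1 mm×1 mm blocks, expressed versus M199 (2+) control.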

For test [3] the test system is unchanged. Briefly: Tube Formation Assay (TFA) Test, HUVEC in collagen gel. Particulars: Homo sapiens, HUVEC, 20 hours, 40% or less judged remarkable, read-out: TFA (inhibition rate, %); for inhibition at 1 µg/mL: 1 μg/ml; for inhibition at 10 µg/mL: 10 μg/ml. The method, boiled down: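 Inhibition rate (%) of tube formation is computed from tube lengths against control (+) and control (-), measured after 20 h at 37 °C in M-199 with 20% FCS, 30 ng/ml b-FGF and 0.1 μM PMA. Samples were applied to HUVEC on collagen and covered by a second collagen layer (double-layer gel).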

What is called inhibition is the change of the read-out against control, counted positive when it falls. With `CC[C@]12O[C@H]1C[C@@H]1C(C(=O)OC)=CO[C@@H](OC(=O)NC)[C@@H]12` [compound 43, (1S,4aS,6s,7R,7aR)-6,7-epoxy-7-ethyl-1,4a,5,6,7,7a-1-hexahydro-1-(methylcarbamoyloxy) cyclopenta [c] pyrane-4-carboxylic acid methylester], the IC50 in test [1] is over 100 µg/mL. In test [2], the activity at 1 µg/mL amounted to 99.9% and the activity at 10 µg/mL is 89.3%. In test [3] (20 h), the inhibition at 1 µg/mL stood at 12.4% and the inhibition at 10 µg/mL is 9.1%.

As to `COC(=O)C1=COC(OC(=O)Nc2cccc3ccccc23)C2C1CC1OC12C` [compound 37, (1S, 4aS,6S,7R,7aR)-6,7-epoxy-1,4a,5,6,7,7a-hexahydro-7-methyl-1-[(1-naphtyl)carbamoyloxy] cyclopenta [c] pyrane-4-carboxylic acid methylester], in test [1], the IC50 was over 100 µg/mL. Further, in test [2], the activity at 1 µg/mL was determined as 102% and the activity at 10 µg/mL turned out to be 88.6%. Also, in test [3] (20 h), the inhibition at 1 µg/mL came out at 14.1% and the inhibition at 10 µg/mL turned out to be 22.6%.

`CNC(=O)O[C@@H]1OC=C(C(=O)NC)[C@H]2C[C@@H]3O[C@]3(C)[C@H]12` [compound 15, (1S,4aS,6S,7R,7aR)-6,7-epoxy-1,4a,5,6,7,7a-hexahydro-7-methyl-1-(methylcarbamoyloxy) cyclopenta [c]-pyrane-4-carboxylic acid methylamide]: the IC50 in test [1] is over 100 µg/mL. In test [2], the activity at 1 µg/mL turned out to be 71.1% and the activity at 10 µg/mL turned out to be 58.3%. Also, in test [3] (20 h), the inhibition at 1 µg/mL is -16% and the inhibition at 10 µg/mL was -8%.

For the compound `CNC(=O)O[C@@H]1OC=C(C(=O)NCc2ccccc2)[C@H]2C[C@@H]3O[C@]3(C)[C@H]12` [compound 27, (1S,4aS,6S,7R,7aR)-6,7-epoxy-1,4a,5,6,7,7a-hexahydro-7-methyl-1-(methylcarbamoyloxy) cyclopenta [c]-pyrane-4-carboxylic acid benzylamide], in test [1], the IC50 is over 100 µg/mL. In addition, in test [2], the activity at 1 µg/mL was determined as 94.5% and the activity at 10 µg/mL amounted to 103%. Besides, in test [3] (20 h), the inhibition at 1 µg/mL turned out to be 29.1% and the inhibition at 10 µg/mL came out at 32.7%.

As for `COC(=O)C1=CO[C@@H](OC(=O)Nc2ccc(F)cc2)[C@@H]2[C@@H]1C[C@@H]1O[C@]21C` [compound 36, (1S,4aS,6S,7R,7aR)-6,7-epoxy-1,4a,5,6,7,7a-hexahydro-1-[(4-fluorophenyl)carbamoyloxy]-7-methylcyclopenta [c] pyrane-4-carboxylic acid methylester], the IC50 in test [1] is over 100 µg/mL. Moreover, in test [2], the activity at 1 µg/mL was 95% and the activity at 10 µg/mL came out at 99.7%. Also, in test [3] (20 h), the inhibition at 1 µg/mL worked out at 6.9% and the inhibition at 10 µg/mL is -18.3%.

Turning to `CCCCCCNC(=O)C1=COC(OC(=O)NC)C2C1CC1OC12C` [compound 17, (1S,4aS,6S,7R,7aR)-6,7-epoxy-1,4a5 6,7,7a-hexahydro-7-methyl-1-(methylcarbamoyloxy) cyclopenta [c]-pyrane-4-carboxylic acid n-hexylamide], in test [1], the IC50 was 69.1 µg/mL (≈ 196 µM). Further, in test [2], the activity at 1 µg/mL came out at 94.4% and the activity at 10 µg/mL was 114%. For the same compound, in test [3] (20 h), the inhibition at 1 µg/mL turned out to be 19% and the inhibition at 10 µg/mL is 23.4%.

Turning to `COC(=O)C1=CO[C@@H](OC(=O)N2CCOCC2)[C@@H]2[C@@H]1C[C@@H]1O[C@]21C` [compound 38, (1S,4aS,6S,7R,7aR)-6,7-epoxy-1,4a,5,6,7,7a-hexahydro-7-methyl-1-(morpholinocarbonyloxy) cyclopenta [c] pyrane-4-carboxylic acid methylester], the IC50 in test [1] was over 100 µg/mL. Moreover, in test [2], the activity at 1 µg/mL stood at 92.3% and the activity at 10 µg/mL stood at 61.8%. Also, in test [3] (20 h), the inhibition at 1 µg/mL was 15.3% and the inhibition at 10 µg/mL was -10%.

Consider `C=CCCCOC(=O)C1=CO[C@@H](OC(=O)NC)[C@@H]2[C@@H]1C[C@@H]1O[C@]21C` [compound 7, (1S,4aS,6S,7R,7aR)-6,7-epoxy-1,4a,5,6,7,7a-hexahydro-7-methyl-1-(methylcarbamoyloxy) cyclopenta [c]-pyrane-4-carboxylic acid 4-pentenylester], for which the IC50 in test [1] came out at 90.6 µg/mL (≈ 269 µM). Moreover, in test [2], the activity at 1 µg/mL stood at 82.6% and the activity at 10 µg/mL came to 79.7%. In test [3] (20 h), the inhibition at 1 µg/mL was 25.8% and the inhibition at 10 µg/mL came to 18.2%.

Take `COC(=O)C1=CO[C@@H](OC(=O)NC(=O)c2ccccc2)[C@@H]2[C@@H]1C[C@@H]1O[C@]21C` [compound 41, (1S,4aS,6S,7R,7aR)-1-(benzoylcarbamoyloxy)-6,7-epoxy-1,4a,5,6,7,7a-hexahydro-7-methylcyclopenta [c] pyrane-4-carboxylic acid methylester]: in test [1], the IC50 worked out at 56.1 µg/mL (≈ 150 µM). Also, in test [2], the activity at 1 µg/mL is 102% and the activity at 10 µg/mL was found to be 95%. Moreover, in test [3] (20 h), the inhibition at 1 µg/mL came out at 46.7% and the inhibition at 10 µg/mL was 37.6%.

Consider `CNC(=O)O[C@@H]1OC=C(C(=O)OC)[C@H]2C[C@@H]3O[C@]3(CCl)C12` (stereo in doubt) [compound 51, (1S,4aS,6S,7R,7aR)-6,7-epoxy-7-(chloromethyl)-1-(methylcarbamoyloxy)-1,4a,5,6,7,7a-hexahydrocyclopenta [c]pyrane-4-carboxylic acid methylester], for which, in test [1], the IC50 is over 100 µg/mL. Moreover, in test [2], the activity at 1 µg/mL was found to be 102% and the activity at 10 µg/mL was 101%. Also, in test [3] (20 h), the inhibition at 1 µg/mL worked out at 19.1% and the inhibition at 10 µg/mL was -1.4%.

As for `CNC(=O)OC1OC=C(C(=O)N2CCN(CCO)CC2)C2CC3OC3(C)C12` [compound 22, (1S,4aS,6S,7R,7aR)-6,7-epoxy-1,4a,5,6,7,7a-hexahydro-7-methyl-1-(methylcarbamoyloxy) cyclopenta [c]-pyrane-4-carboxylic acid 4-(2-hydroxyethyl) piperazylamide], the IC50 in test [1] is over 100 µg/mL. Besides, in test [2], the activity at 1 µg/mL is 93.4% and the activity at 10 µg/mL is 97.7%. For the same compound, in test [3] (20 h), the inhibition at 1 µg/mL worked out at 50.8% and the inhibition at 10 µg/mL was 74.9%.

As for `CCCCCCOC(=O)C1=CO[C@@H](OC(=O)NC)[C@@H]2[C@@H]1C[C@@H]1O[C@]21C` [compound 5, (1S,4aS,6S,7R,7aR)-6,7-epoxy-1,4a,5,6,7,7a-hexahydro-7-methyl-1-(methylcarbamoyloxy) cyclopenta [c]-pyrane-4-carboxylic acid n-hexylester], the IC50 in test [1] amounted to 44.9 µg/mL (≈ 127 µM). Further, in test [2], the activity at 1 µg/mL is 98.6% and the activity at 10 µg/mL amounted to 82%. Also, in test [3] (20 h), the inhibition at 1 µg/mL was determined as 20.8% and the inhibition at 10 µg/mL was 34.5%.

As to `CN(Cc1cnc2nc(N)nc(N)c2n1)c1ccc(C(=O)N[C@@H](CCC(=O)O)C(=O)O)cc1` [MTX, Methotrexate, reference compound], the IC50 in test [1] worked out at 0.04 µg/mL (≈ 0.088 µM). Further, in test [2], the activity at 1 µg/mL came to 102% and the activity at 10 µg/mL worked out at 103%. For the same compound, in test [3], the inhibition at 1 µg/mL is 37.5% and the inhibition at 10 µg/mL came to 42.6%.
